Source: patent publication US20230233484A1, “USE OF VITAMIN K IN PREVENTING OR COU[…]-19 DISEASE AND DIAGNOSTIC TEST TO ESTIMATE THE RISK OF […] DISEASE OR MORTALITY BY COVID-19” (EMPHYSEMA SOLUTIONS BV, priority 2020, published 2023)

What was measured:
Covid-19 [1] = assay: Ongoing intervention trial of vitamin K administration in Covid-19 patients; type: in vivo; conditions: twelve Covid-19 patients have received treatment
Excerpt: (§1) Procoagulant prothrombin activation by vitamin K remained preserved in the majority of Covid-19 patients. Impaired MGP activation was linked to accelerated elastic fiber degradation and premorbid vascular calcifications. About fifty percent of total anticoagulant protein S is activated extra-hepatically by vitamin K, and this activation is likely also impaired during Covid-19. Given the fact that procoagulant activity remains intact, this is compatible with the increased thrombogenicity that is frequently observed in severe Covid-19. Based on our findings we expect that increasing MGP and protein S activity by vitamin K administration will considerably improve Covid-19 outcomes. An intervention trial to confirm this hypothesis is currently ongoing.

Covid-19 [2] = assay: Cohort of hospitalized COVID-19 patients treated with vitamin K, compared with previous COVID-19 cohorts; type: in vivo; conditions: hospitalized COVID-19 cohort treated with vitamin K vs previous COVID-19 cohorts from the same hospital
Excerpt: as §1

dp-ucMGP = conditions: vitamin K supplementation; cited from earlier work
Sequence of dp-ucMGP (P08493 20-96): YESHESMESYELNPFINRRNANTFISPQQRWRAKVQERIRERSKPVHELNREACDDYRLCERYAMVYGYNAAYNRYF

## vitamin K
Covid-19 [1]
  safety issues: no unexpected safety issues
Covid-19 [2]
  ICU admission rate: significantly lower
  mortality: significantly lower
dp-ucMGP
  effect on dp-ucMGP levels: reducing effect
